Data: US11932898B2, “Precision therapeutic biomarker screening for cancer” (UNIVERSITY OF MIAMI, priority 2016, dated 2024)

What was measured:
human tumor cell lines = experiment: component-wise IC50 values of the SANGER drug sensitivity dataset, clustered by generalized FMMR cell line components; format: cell-based; details: for magnitude of IC50s for overlapping component 12: component-wise IC50 boxplots, FIG. 11A-11E, cell line components 1, 2 and 12
Text: Cancer cell lines have frequently been used as a convenient way of conducting such studies. For a systematic search of therapeutic biomarkers to a variety of cancer drugs, Garnett et al. (2012) screened 639 human tumor cell lines which represent much of the tissue-type and genetic diversity of human cancers with 130 drugs. These drugs, including approved drugs, drugs in development as well as experimental tool compounds, cover a wide range of targets and processes involved in cancer biology. In the Garnett et al. work, a range of 275-507 cell lines were screened for each drug. The effect of a 72 h drug treatment on cell viability was used to derive measures of drug sensitivity, including the half-maximal inhibitory concentration (IC50). In addition, the cell lines underwent sequencing of 64 known cancer genes, genome-wide analysis of copy number gains and losses, and expression profiling of 14,500 genes.
We applied the innovative techniques herein to analyzing the SANGER high throughput drug sensitivity dataset for cancer. […] The responses, made up with IC50 values from pairwise drug-cell-line screening, has some missing values. Therefore the data was first filtered by removing cell lines for which less than 50% of the drugs were tested, resulting in 591 cell lines remaining. In the remaining data, about 37.4% of the cell lines are with missing values. These missing values are imputed via the random forest imputation algorithm (Ishwaran, Kogalur, Blackstone and Lauer 2008; Stekhoven and Buhlmann 2012).
In order to identify patterns of cancer-specific therapeutic biomarkers, we employed method gEMseplasso in the analysis. […]
In the second step, the process uses an affinity-propagation clustering (APC) algorithm (Frey and Dueck 2007) to group the 140 drugs based on results from the first step. […] The pair-wise similarity matrix required by the algorithm as input data is calculated from the Euclidean distance between Za and Zb. […] The pair-wise similarity matrix is calculated from the Euclidean distance between Bk^a and Bk^b for k=1, . . . , 3. […]

soft tissue cancer = soft tissue cancer resistant to standard chemotherapy (doxyrubicin); small sample size phase II study; cited from earlier work
[1] = test system: chronic myeloid leukemia (CML); details: cited from earlier work

## COc1cc2ncn(-c3cc(OCc4ccccc4C(F)(F)F)c(C(N)=O)s3)c2cc1OC [GW843682X]
Human tumor cell lines; among cell line components 1, 2, and 12
  component with highest IC50s: component 2
Human tumor cell lines
  magnitude of IC50s for overlapping component 12: between those for component 1 and 2

## Nc1ccn([C@@H]2O[C@H](CO)[C@@H](O)C2(F)F)c(=O)n1 [Gemcitabine]
Soft tissue cancer
  effectiveness in soft tissue cancer: effective

## Nc1ccccc1NC(=O)c1ccc(CNC(=O)OCc2cccnc2)cc1 [MS.275]
Human tumor cell lines
  magnitude of IC50s for overlapping component 12: between those for component 1 and 2

## Cc1ccc(NC(=O)c2ccc(CN3CCN(C)CC3)cc2)cc1Nc1nccc(-c2cccnc2)n1 [imatinib]
[1]; CML patients who had exhausted standard treatment options, tested in 1998
  blood counts: returning to normal
[1]; CML patients
  five-year survival rate: 95%
